According to patent US9278981B2, “Compounds and compositions for inhibiting the activity of ABL1, ABL2 and BCR-ABL1” (Novartis AG, priority 2012, dated 2016):

What was measured:
ABL1 (64-515) [1] = biological target: T1, ABL1 (64-515) (Homo sapiens (Human), UniProt P00519); experiment: Radio ABL1 (64-515) assay (radiometric filter-binding); assay type: biochemical
ABL1 (64-515) [2] = biological target: T1, ABL1 (64-515); experiment: Caliper ABL1 (64-515) assay (microfluidic mobility shift); assay type: biochemical

T1 sequence (P00519 64-515): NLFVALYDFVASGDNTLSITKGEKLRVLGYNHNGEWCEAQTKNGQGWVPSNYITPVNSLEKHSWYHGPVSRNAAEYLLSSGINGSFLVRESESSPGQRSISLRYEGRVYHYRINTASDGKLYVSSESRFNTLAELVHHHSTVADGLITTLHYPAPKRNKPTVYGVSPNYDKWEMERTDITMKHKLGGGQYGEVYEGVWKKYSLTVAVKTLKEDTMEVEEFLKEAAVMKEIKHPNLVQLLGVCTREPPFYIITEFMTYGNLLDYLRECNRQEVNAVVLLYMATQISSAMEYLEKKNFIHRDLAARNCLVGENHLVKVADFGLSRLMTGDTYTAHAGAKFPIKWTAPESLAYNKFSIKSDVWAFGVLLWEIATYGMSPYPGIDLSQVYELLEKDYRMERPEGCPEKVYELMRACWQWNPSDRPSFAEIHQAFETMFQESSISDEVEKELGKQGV

Row | IC50 (ABL1 (64-515) [1]) [nM] | IC50 (ABL1 (64-515) [2]) [nM] | Structure (SMILES)
1 | 0.9 | 1.6 | N[C@@H]1[C@H]2CN(c3ncc(C(=O)Nc4ccc(OC(F)(F)F)cc4)cc3-c3cncnc3)C[C@@H]12 [Example 227]
2 | 2 | 1.8 | O=C(Nc1ccc(OC(F)(F)F)cc1)c1cnc(N2C[C@@H](O)[C@@H](O)C2)c(-c2cncc(F)c2)c1 [Example 235, 2-(cis-3,4-Dihydroxypyrrolidin-1-yl)-5′-fluoro-N-(4-(trifluoromethoxy)phenyl)-[3,3′-bipyridine]-5-carboxamide]
3 | 3 | 0.9 | O=C(Nc1ccc(OC(F)(F)Cl)cc1)c1cnc(N2CC[C@H](CO)C2)c(-c2cncnc2)c1 [Example 174, (S)—N-(4-(Chlorodifluoromethoxy)phenyl)-6-(3-(hydroxymethyl)pyrrolidin-1-yl)-5-(pyrimidin-5-yl)nicotinamide]
4 | < 0.1 | < 0.13 | N#Cc1cncc(-c2cc(C(=O)Nc3ccc(OC(F)(F)Cl)cc3)cnc2N2C[C@H](O)[C@@H](O)C2)c1 [Example 269]
5 | 8.3 | 0.5 | NC12CC1CN(c1ncc(C(=O)Nc3ccc(OC(F)(F)Cl)cc3)cc1-c1cncnc1)C2 (centres unmarked) [Example 252]
6 | 2 | 1.2 | O=C(Nc1ccc(OC(F)(F)Cl)cc1)c1cnc(N2CC[C@@H](O)C2)c(-c2cc(F)nc(F)c2)c1 [Example 273]
7 | 1.6 | 4.7 | O=C(Nc1ccc(OC(F)(F)F)cc1)c1cnc(N2CCC(F)(F)C2)c(-c2cncnc2)c1 [Example 224, 6-(3,3-Difluoropyrrolidin-1-yl)-5-(pyrimidin-5-yl)-N-(4-(trifluoromethoxy)phenyl)nicotinamide]
8 | < 3 | 1.5 | CC(C)(O)C1CCN(c2ncc(C(=O)Nc3ccc(OC(F)(F)F)cc3)cc2-c2cncnc2)C1 (centres unmarked) [Example 113, 6-(3-(2-Hydroxypropan-2-yl)pyrrolidin-1-yl)-5-(pyrimidin-5-yl)-N-(4-(trifluoromethoxy)phenyl)nicotinamide]
9 | 1.3 | 0.5 | O=C(Nc1ccc(OC(F)(F)Cl)cc1)c1ccc(N2CC[C@@H](O)C2)c(-c2cncnc2)c1 [Example 243, (R)—N-(4-(Chlorodifluoromethoxy)phenyl)-4-(3-hydroxypyrrolidin-1-yl)-3-(pyrimidin-5-yl)benzamide]
10 | 2.4 | 4 | O=C(Nc1ccc(OC(F)(F)F)cc1)c1cnc(N2CCCOCC2)c(-c2cncnc2)c1 [Example 233]
11 | 5 | 2.8 | CC(F)(F)Oc1ccc(NC(=O)c2cnc(N3CC[C@@H](O)C3)c(-c3cncc(F)c3)c2)cc1 [Example 275]
12 | < 3 | 0.7 | N#Cc1cncc(-c2cc(C(=O)Nc3ccc(OC(F)(F)F)cc3)cnc2N2CC[C@H](CO)C2)c1 [Example 90, (S)-5′-Cyano-2-(3-(hydroxymethyl)pyrrolidin-1-yl)-N-(4-(trifluoromethoxy)phenyl)-[3,3′-bipyridine]-5-carboxamide]
13 | 0.4 | 5.5 | O=C(Nc1ccc(OC(F)(F)F)cc1)c1ccc(N2CCOC2=O)c(-c2cncnc2)c1 [Example 117, 4-(2-Oxooxazolidin-3-yl)-3-(pyrimidin-5-yl)-N-(4-(trifluoromethoxy)phenyl)benzamide]
14 | 1 | 1.1 | O=C(Nc1ccc(OC(F)(F)F)cc1)c1cnc(N2Cc3cn[nH]c3C2)c(-c2cncnc2)c1 [Example 228]
15 | < 3 | 2 | CCN(CCO)c1ncc(C(=O)Nc2ccc(OC(F)(F)F)cc2)cc1-c1cncc(F)c1 [Example 157, 2-(Ethyl(2-hydroxyethyl)amino)-5′-fluoro-N-(4-(trifluoromethoxy)phenyl)-[3,3′-bipyridine]-5-carboxamide]

Row | Structure (SMILES) | IC50 (ABL1 (64-515) [1]) [nM] | IC50 (ABL1 (64-515) [2]) [nM]
16 | O=C(Nc1ccc(OC(F)(F)F)cc1)c1cnc(N2C3COCC2COC3)c(-c2cncnc2)c1 [Example 150, 6-(3,7-Dioxa-9-azabicyclo[3.3.1]nonan-9-yl)-5-(pyrimidin-5-yl)-N-(4-(trifluoromethoxy)phenyl)nicotinamide] | 4 | 6.5
